Results: patent publication US20220306585A1, “PYRAZOLE DERIVATIVES FOR CONTROLLING ARTHROPODS” (Bayer Animal Health GmbH, priority 2019, published 2022)
Converted amounts (≈) assume the structure as drawn.

Experiments:
[1] = Measurement of solubility in buffer at pH 6.5; type: physicochemical; settings: aqueous buffer, kinetic from dmso stock; PBS buffer pH 6.5, shaken 24 h at rt, LC-MSMS; read-out: Solubility of example compounds at pH 6.5
Experimental: Measurement of Solubility in Buffer at pH 6.5 2-4 mg of the test compound are dissolved in DMSO to reach a concentration of 50 g/L (solution A). To 10 μL of this solution 960 μL PBS buffer pH 6.5 are added (final concentration: […]); the mixture is shaken for 24 h at rt in a 96 well plate. An aliquot is centrifuged at 42000 rpm für 30 min. The supernatant is diluted with acetonitrile/water (8:2) 1:10 and 1:1000 resp. This diluted samples are analyzed by LC-MSMS. Calibration: 10 μL of solution A are diluted with 823 μL DMSO (final concentration: 600 μg/mL), which is further diluted with acetonitrile/water 8:2 by a factor of 100 (provides solution B). The calibration curve is obtained from solution B by further diluting with acetonitrile/water 8:2 with target concentrations of 1.2-12-60-600 ng/mL and injecting these four solutions for MS measurement. PBS-Puffer: 6.18 g sodium chloride and 3.96 g sodium dihydrogen phosphate are dissolved in 1 L aqua dist., the pH is adjusted to 6.5 with IN sodium hydroxide.

[2] = Degradation of prodrugs and release of parent drug in rat plasma; type: in vitro ADME; settings: male, Hannover-Janvier RjHan, rat plasma (Li-heparin), 37° C., percent area of prodrug at t0
Experimental: Measurement of Release of Parent Drug in Rat Plasma 1 mg of the test compound was dissolved in 0.5 mL acetonitrile/dimethylsulfoxide 9:1. For complete dissolution the HPLC vial was shaken and treated with ultrasound. 20 μL of this solution were added to 1 mL of rat plasma (Li-heparin plasma, Hannover-Janvier rat, RjHan male) with vortexing at a temperature of 37° C. Aliquots (100 μL each) were taken at 0.17, 0.5, 1, 1.5, 2 and 4 hours. Each aliquot was transferred to a vial containing 300 μL of acetonitrile/citric acid buffer pH 3 8:2. These solutions were centrifuged at 5000 rpm for 10 minutes. The supernatant was analysed by HPLC (Method 8) to determine the amount of the test compound. In addition, the reaction mixture was analysed by method 9 (HPLC-MS) at the final timepoint. Both decrease of the prodrug concentration and increase of parent drug concentration were monitored. All data is given as percent area of the prodrug at to.

[3] = Measurement of stability of prodrugs in buffer at pH 7.4; type: physicochemical; settings: PBS buffer pH 7.4, 37° C., HPLC peak area, read-out: % Recovery after 24 h (stability at pH 7.4)
Experimental: Preparation of the PBS buffer solution pH 7.4: 90 g sodium chloride, 13.61 g potassium dihydrogen phosphate, 83.35 g 1M aqueous sodium hydroxide were dissolved in water. More water was added up to a total volume of 1 L. This solution was diluted 1:10 with water. Eventually, pH was adjusted to pH 7.4 by the addition of phosphoric acid.
Measurement of Stability of Prodrugs in Buffer at pH 7.4
0.15 mg of the test compound were dissolved in 0.1 mL dimethylsulfoxide and 0.4 mL acetonitrile. For complete dissolution, the HPLC vial with the sample solution was shaken and treated with ultrasound. Then, 1.0 mL of PBS buffer solution pH 7.4 was added and the sample was vortexed. The sample solution was analysed by HPLC (method 8) to determine the amount of the test compound at a particular time over a period of 24 h at 37° C. The peak areas, given as percentage of total area, are used for quantification. In addition, the reaction mixture was analysed by method 9 (HPLC-MS) at the final timepoint.

[4] = Evaluation of pharmacokinetics in vivo (rat); settings: concentration of Parent Drug A after admin. of the named substance
Experimental: (§1) Evaluation of Pharmacokinetics (In Vivo) To evaluate the pharmacokinetics of test substances in vivo, these test substances are dissolved in appropriate formulation vehicles (ethanol, dimethyl sulfoxide, PEG400, glycerol formal etc.), or mixtures thereof. The test substances are then administered to rats or dogs intravenously, orally or subcutaneously. The intravenous application is performed as bolus. Administered doses range usually between 0.1 to 5 mg/kg, however, doses for subcutaneous and oral administration can exceed this range up to doses of 30 mg/kg. Blood samples are retrieved via a catheter, exsanguination or venous puncture in vials containing appropriate anticoagulants, such as lithium heparinate or potassium EDTA. Plasma is generated from the blood via centrifugation. Blood samples are taken over an appropriate time interval, usually lasting up to 144 h after administration. If necessary, samples from later time points can also be taken. If possible, time points are chosen so that the initial absorption phase, the maximum plasma concentration (Cmax), and exposure within a certain time interval (AUC(0-t))aer described. Furthermore, it is possible to also retrieve organ-, tissue- and urine samples. The quantitative measurement of the test substances in the samples is performed using calibration curves in the respective matrices. The protein content of the samples is precipitated using acetonitrile or methanol. Thereafter, the samples are separated using HPLC in combination with reversed phase chromatography columns. The HPLC system is coupled to a triple quadrupole mass spectrometer via an electrospray interface. The evaluation of the plasma concentration/time profiles are afterwards evaluated using a validated pharmacokinetics evaluation program. […] Relative bioavailability (Frel) was used to describe the exposure of parent drug after prodrug administration compared to the exposure of parent drug after direct administration of compound A which was normalised to 100%.

[5] = test system: Dermacentor variabilis nymph; experiment: Antiparasitic activity after administration to rats: ticks; type: in vivo; settings: Dermacentor variabilis nymph; for In-vivo Efficacy SD2: study day 2; for In-vivo Efficacy SD9: study day 9; for In-vivo Efficacy SD16: study day 16; for In-vivo Efficacy SD23: study day 23; for In-vivo Efficacy SD30: study day 30; for In-vivo Efficacy SD37: study day 37
Experimental: (§2) Measurement of the Antiparasitic Activity after Administration of a Prodrug to Rats Compounds were dissolved in the appropriate volume of glycerol formal (p.a.) just before application to the animals (dose volume was adjusted to 0.03 mL/kg bodyweight). 5 rats per group were either injected intraperitoneally or subcutaneously. Rats were infested with 30 Dermacentor variabilis nymphs on study days −2, 7, 14, 21, 28, 35 and 30 adult Ctenocephalides fleas on study days −1, 8, 15, 22, 29, 36. Parasite counts were performed on study days 2, 9, 16, 23, 30, 37. Percent efficacy was calculated as arithmetic mean parasite numbers as life attached tick numbers and live flea numbers of the respective study group in comparison to parasite counts on a placebo-treated control group. Infestation of groups with less than 75% efficacy on two consecutive counting occasions will terminated for the respective parasite.

[6] = test system: Ctenocephalides felis adult; experiment: Antiparasitic activity after administration to rats: fleas; type: in vivo; settings: Ctenocephalides felis adult; for In-vivo Efficacy SD2: study day 2; for In-vivo Efficacy SD9: study day 9; for In-vivo Efficacy SD16: study day 16
Experimental: as §2

[7] = Evaluation of pharmacokinetics in vivo (dog)
Experimental: as §1

N#CC1(N(COC(=O)CCC(=O)O)C(=O)c2cc(-c3cnn(-c4c(Cl)cc(C(F)(C(F)(F)F)C(F)(F)F)cc4OC(F)(F)F)c3)ccc2Cl)CC1 [Example 8, 4-{[(2-Chloro-5-{1-[2-chloro-4-(1,1,1,2,3,3,3-heptafluoropropan-2-yl)-6-(trifluoromethoxy)phenyl]-1H-pyrazol-4-yl}benzoyl)(1-cyanocyclopropyl)amino]methoxy}-4-oxobutanoic acid]
solubility at 24 h [1]: 12 µg/mL (≈ 15.4 µM)
recovery at 0.17 h, 39 µg/mL ([2]; 0.17 h): 96%
recovery at 0.5 h, 39 µg/mL ([2]; 0.5 h): 95%
recovery at 1 h, 39 µg/mL ([2]; 1 h): 93%
recovery at 1.5 h, 39 µg/mL ([2]; 1.5 h): 92%
recovery at 2 h, 39 µg/mL ([2]; 2 h): 90%
recovery at 4 h, 39 µg/mL ([2]; 4 h): 86%
recovery at 24 h, 0.1 mg/mL [3]: 95%
AUC(0-144 h)norm of parent drug A ([4]; iv bolus): 12 kg·h/L
AUC(0-144 h)norm of parent drug A ([4]; sc): 6.7 kg·h/L
In-vivo Efficacy SD2 ([5]; 12.00 mg/kg sc): 100%
In-vivo Efficacy SD9 ([5]; 12.00 mg/kg sc): 100%
In-vivo Efficacy SD16 ([5]; 12.00 mg/kg sc): 99%
In-vivo Efficacy SD23 ([5]; 12.00 mg/kg sc): 100%
In-vivo Efficacy SD30 ([5]; 12.00 mg/kg sc): 100%
In-vivo Efficacy SD37 ([5]; 12.00 mg/kg sc): 100%
In-vivo Efficacy SD42 ([5]; 12.00 mg/kg sc, study day 42): 92%
In-vivo Efficacy SD2 ([6]; 12.00 mg/kg sc): 100%
In-vivo Efficacy SD9 ([6]; 12.00 mg/kg sc): 99%
In-vivo Efficacy SD16 ([6]; 12.00 mg/kg sc): 100%
In-vivo Efficacy SD23 ([6]; 12.00 mg/kg sc, study day 23): 100%
In-vivo Efficacy SD30 ([6]; 12.00 mg/kg sc, study day 30): 97%
In-vivo Efficacy SD37 ([6]; 12.00 mg/kg sc, study day 37): 88%
In-vivo Efficacy SD42 ([6]; 12.00 mg/kg sc, study day 42): 78%

N#CC1(NC(=O)c2cc(-c3cnn(-c4c(Cl)cc(C(F)(C(F)(F)F)C(F)(F)F)cc4OC(F)(F)F)c3)ccc2Cl)CC1 [Parent Drug A, 2-Chlor-5-{1-[2-chlor-4-(1,1,1,2,3,3,3-heptafluorpropan-2-yl)-6-(trifluormethoxy)phenyl]-1H-pyrazol-4-yl}-N-(1-cyanocyclopropyl)benzamide, reference compound]
AUC(0-72 h)norm of parent drug A ([7]; iv bolus, concentration of Parent Drug A after admin. of the named substance): 6.0 kg·h/L
bioavailability ([7]; plasma, sc, calculated based on AUC(0-t)norm, parent drug A normalised to 100%, read-out: Frel (relative bioavailability)): 100%
AUC(0-384 h)norm of parent drug A ([7]; sc, concentration of Parent Drug A after admin. of the named substance): 1.0 kg·h/L
AUC(0-144 h)norm of parent drug A ([4]; iv bolus): 11 kg·h/L
AUC(0-144 h)norm of parent drug A ([4]; sc): 1.7 kg·h/L
In-vivo Efficacy SD2 ([5]; 10 mg/kg ip): 96%
In-vivo Efficacy SD9 ([5]; 10 mg/kg ip): 87%
In-vivo Efficacy SD16 ([5]; 10 mg/kg ip): 83%
In-vivo Efficacy SD23 ([5]; 10 mg/kg ip): 93%
In-vivo Efficacy SD30 ([5]; 10 mg/kg ip): 53%
In-vivo Efficacy SD37 ([5]; 10 mg/kg ip): 32%
In-vivo Efficacy SD2 ([5]; 10 mg/kg sc): 72%
In-vivo Efficacy SD9 ([5]; 10 mg/kg sc): 61%
In-vivo Efficacy SD2 ([6]; 10 mg/kg ip): 84%
In-vivo Efficacy SD9 ([6]; 10 mg/kg ip): 68%
In-vivo Efficacy SD16 ([6]; 10 mg/kg ip): 71%
In-vivo Efficacy SD2 ([6]; 10 mg/kg sc): 53%
In-vivo Efficacy SD9 ([6]; 10 mg/kg sc): 44%
